# Reference: patent US9315458B2, “Nitrogen-containing heterocyclic compound” (Takeda Pharmaceutical Company Limited, priority 2014, dated 2016)
# Experiments:
# [1] = test system: IP1 production in hippocampi; test: Measurement of myo-inositol 1 phosphate (IP1) in hippocampus after oral administration; type: in vivo, male Long-Evans rats; conditions: 10 mg/kg oral, rat hippocampus, IP1/protein ratio, lithium chloride s.c.
# From the text: Animals used were male Long-Evans rats. They were used after acclimation for at least 1 week. Test compounds were suspended in 0.5% aqueous methylcellulose solution, and the suspension was orally administered to the rats. At a certain period of time after the oral administration, the solution prepared by dissolving lithium chloride in saline was subcutaneously administered into the rats. At a certain period of time after the subcutaneously administration, their bilateral hippocampi were isolated from the rats, and the wet weight thereof was measured. The hippocampi were homogenized with HEPES buffer, followed by centrifugation. The IP1 and protein concentrations in the supernatant were measured by IP-One HTRF assay kit (Cisbio Bioassays) and BCA protein assay kit (Thermo Scientific), respectively. The level of the IP1 production was expressed as the ratio of the concentration of IP1 to that of protein. The increase rate of the IP1 production was shown as a relative value when Vehicle administration group as 100%.
# [2] = target: T1, human M1 receptor (hCHRM1) (Homo sapiens, UniProt P11229); test: Measurement of M1 receptor positive allosteric modulator (M1PAM) activity, calcium fluorescence (FLIPRtetra) with acetylcholine at EC20; type: cell-based; conditions: for activity (%) at 10 μM: 10 μM test compound, 100% = acetylcholine 1 μM, 0% = DMSO, acetylcholine at EC20; for EC50: inflection point of concentration-dependent curve, CHO-K1 cells expressing hCHRM1, acetylcholine at EC20 (final 0.6-0.8 nM), read-out: IP value
# T1 construct: expressed in transfected cells
# T1 sequence (P11229 1-460): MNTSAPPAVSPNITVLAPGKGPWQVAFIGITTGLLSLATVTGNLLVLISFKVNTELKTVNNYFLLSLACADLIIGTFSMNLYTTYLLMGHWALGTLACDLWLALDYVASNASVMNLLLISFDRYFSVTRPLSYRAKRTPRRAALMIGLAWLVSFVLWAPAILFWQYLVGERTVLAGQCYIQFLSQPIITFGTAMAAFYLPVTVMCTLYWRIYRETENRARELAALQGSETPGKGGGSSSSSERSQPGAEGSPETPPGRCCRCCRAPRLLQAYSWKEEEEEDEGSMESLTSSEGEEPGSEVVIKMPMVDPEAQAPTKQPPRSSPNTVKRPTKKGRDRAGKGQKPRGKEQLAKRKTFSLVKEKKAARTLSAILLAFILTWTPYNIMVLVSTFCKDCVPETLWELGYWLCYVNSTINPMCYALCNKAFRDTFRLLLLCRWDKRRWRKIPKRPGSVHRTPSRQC
# In short: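 CHO-K1 cells stably expressing hCHRM1, Fluo-4 AM loaded; compound added with acetylcholine at EC20 (final 0.6-0.8 nM), fluorescence read 1 min. Activity normalised to 1 μM acetylcholine (100%) and DMSO (0%); IP values taken as inflection point of the concentration-response curve.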
# [3] = test system: Scopolamine-induced memory deficits models; test: Novel object recognition test; type: in vivo, male Long-Evans rats; conditions: scopolamine 0.1 mg/kg s.c., mean±standard error
# Description: Novel object recognition test is comprised of two trials called the acquisition and the retention trials. Scopolamine-induced memory deficits models were used for the test, and animals used were male Long-Evans rats (7-week-old). On the day before the test, for acclimation, the rats were allowed to freely move about the test box (40×40×50 cm) for 10 minutes. On the test day, the rats were acclimated to the test room for about 1 hr prior to the test. The test compounds were orally administered to the rats in a single dose 2 hr before the acquisition trial. For induction of learning and memory deficits, scopolamine (0.1 mg/kg) was subcutaneously administered into the rats 30 min before the acquisition trial. For the acquisition trial, two identical objects (A1, A2) were placed in the test box. The rats were put in the test box for 3 min, and the duration exploring each object was measured. The retention trial was performed 4 hr after the acquisition trial. For the retention trial, the familiar object (A3) used for the acquisition trial and the novel object (B) different shape from A3 were placed in the test box. The rats were put in the test box for 3 min. The duration exploring each object in the acquisition trial and the retention trial, and the exploration rate (%) of novel object was calculated. The exploration rate (%) of novel object was expressed as (the duration exploring the novel object)/[(the duration exploring the novel object)+(the duration exploring the familiar object)]×100(%) at mean±standard error.
Compound,increase rate at 10 mg/kg (% of Vehicle) [1],activity (%) at 10 μM [2] [%],EC50 [2] [nM],"exploration rate (%) of novel object ([3]; 3 mg/kg oral 2 hr before acquisition trial, control 63.35±1.59%, solvent-scopolamine 52.08±2.47%) [%]","exploration rate (%) of novel object ([3]; 3 mg/kg oral 2 hr before acquisition trial, control 66.4±2.3%, solvent-scopolamine 50.4±2.4%) [%]","exploration rate (%) of novel object ([3]; 10 mg/kg oral 2 hr before acquisition trial, control 62.37±3.24%, solvent-scopolamine 48.39±2.01%) [%]"
"COc1ccc(Cc2cc3c(c(C)c2C)CN([C@H]2COCC[C@@H]2O)C3=O)cc1 [Example 18, 2-[(3S,4S)-4-hydroxytetrahydro-2H-pyran-3-yl]-6-(4-methoxybenzyl)-4,5-dimethyl-2,3-dihydro-1H-isoindol-1-one]",40 % of Vehicle,88,10,59.11±3.87,,
"Cc1c(Cc2ccc(-n3cccn3)cc2)cc2c(c1F)CN([C@H]1COCC[C@@H]1O)C2=O [Example 20, 4-fluoro-2-[(3S,4S)-4-hydroxytetrahydro-2H-pyran-3-yl]-5-methyl-6-[4-(1H-pyrazol-1-yl)benzyl]-2,3-dihydro-1H-isoindol-1-one]",108 % of Vehicle,109,5.5,,61.2±3.1,
"Cc1ccc(Cc2cc3c(c(C)c2C)CN([C@H]2CCCC[C@@H]2O)C3=O)cn1 [Example 25, 2-((1S,2S)-2-hydroxycyclohexyl)-4,5-dimethyl-6-((6-methylpyridin-3-yl)methyl)isoindolin-1-one]",32 % of Vehicle,90,10,,,57.55±5.03
"Cc1c(Cc2ccc(C#N)cc2)cc2c(c1C)CN([C@H]1COCC[C@@H]1O)C2=O [Example 156, 4-({2-[(3S,4S)-4-hydroxytetrahydro-2H-pyran-3-yl]-6,7-dimethyl-3-oxo-2,3-dihydro-1H-isoindol-5-yl}methyl)benzonitrile]",,80,4.3,,,
COc1ccc(Cc2cc3c(c(F)c2OC)CN([C@H]2COCC[C@@H]2O)C3=O)cc1 [Example 157],,97,84,,,
"COc1ccc(Cc2cc3c(c(C)c2C)CN([C@H]2COCC[C@@H]2O)C3=O)cc1F [Example 158, 6-(3-fluoro-4-methoxybenzyl)-2-[(3S,4S)-4-hydroxytetrahydro-2H-pyran-3-yl]-4,5-dimethyl-2,3-dihydro-1H-isoindol-1-one]",,111,28,,,
"COc1ccc(Cc2cc3c(c(C)c2C)CN([C@H]2COCC[C@@H]2O)C3=O)cc1C [Example 160, 2-[(3S,4S)-4-hydroxytetrahydro-2H-pyran-3-yl]-6-(4-methoxy-3-methylbenzyl)-4,5-dimethyl-2,3-dihydro-1H-isoindol-1-one]",,112,47,,,
"COc1ccc(Cc2cc3c(c(F)c2OC)CN([C@H]2CCCC[C@@H]2O)C3=O)cc1 [Example 161, 4-fluoro-2-((1S,2S)-2-hydroxycyclohexyl)-5-methoxy-6-(4-methoxybenzyl)isoindol-1-one]",,94,32,,,
"Cc1c(Cc2ccc(-n3cccn3)cc2)cc2c(c1C)CN(c1ncc(Cl)cc1F)C2=O [Example 162, 2-(5-chloro-3-fluoropyridin-2-yl)-4,5-dimethyl-6-(4-(1H-pyrazol-1-yl)benzyl)isoindolin-1-one]",,95,66,,,
"COc1ccc(Cc2cc3c(c(C)c2C)CN([C@H]2COCC[C@@H]2O)C3=O)c(F)c1 [Example 163, 6-(2-fluoro-4-methoxybenzyl)-2-[(3S,4S)-4-hydroxytetrahydro-2H-pyran-3-yl]-4,5-dimethyl-2,3-dihydro-1H-isoindol-1-one]",,108,51,,,
"COc1ccc(Cc2cc3c(cc2C)CN([C@H]2COCC[C@@H]2O)C3=O)cc1 [Example 164, 2-[(3S,4S)-4-hydroxytetrahydro-2H-pyran-3-yl]-6-(4-methoxybenzyl)-5-methyl-2,3-dihydro-1H-isoindol-1-one]",,102,62,,,
"COc1ccc(Cc2cc3c(cc2C)CN([C@H]2CCCC[C@@H]2O)C3=O)cc1 [Example 167, 2-((1S,2S)-2-hydroxycyclohexyl)-6-(4-methoxybenzyl)-5-methylisoindolin-1-one]",,95,30,,,
